In ChEMBL document CHEMBL1132520, “Antimalarial activity of 3-hydroxyalkyl-2-methylene-propionic acid derivatives” (1999):
The source made the active and inactive calls. The rule behind the calls is not given here.

Assays:
Mus musculus [1] = assay: Antimalarial activity against Plasmodium berghei evaluated in terms of mean survival time for mice (Mus musculus) at a dose of 80 mg/kg; assay type: functional
Plasmodium falciparum [2] = assay: In vitro antimalarial activity for Plasmodium falciparum at 50 uM/well dose at 24 hrs in Schizont maturation assay; assay type: functional
Mus musculus [3] = assay: Antimalarial activity against Plasmodium berghei evaluated in terms of mean survival time for mice (Mus musculus) at a dose of 40 mg/kg; assay type: functional
Plasmodium falciparum [4] = assay: In vitro inhibition of Plasmodium falciparum at 5 uM/well dose at 72 hrs in total parasite growth assay; assay type: functional
Plasmodium falciparum [5] = assay: In vitro inhibition of Plasmodium falciparum at 100 uM/well dose at 72 hrs in total parasite growth assay; assay type: functional
Plasmodium falciparum [6] = assay: In vitro inhibition of Plasmodium falciparum at 10 uM/well dose at 72 hrs in total parasite growth assay; assay type: functional
Plasmodium falciparum [7] = assay: In vitro inhibition of Plasmodium falciparum at 20 uM/well dose at 72 hrs in total parasite growth assay; Not determined; assay type: functional
Plasmodium falciparum [8] = assay: In vitro antimalarial activity for Plasmodium falciparum at 100 uM/well dose at 24 hrs in Schizont maturation assay; assay type: functional
Mus musculus [9] = assay: Anti-malarial activity against Plasmodium berghei evaluated in terms of mean survival time for mice (Mus musculus) at a dose of 20 mg/kg; assay type: functional
Plasmodium falciparum [10] = assay: In vitro antimalarial activity for Plasmodium falciparum at 0.25 uM/well dose at 24 hrs in Schizont maturation assay; assay type: functional
Plasmodium falciparum [11] = assay: In vitro antimalarial activity for Plasmodium falciparum at 5 uM/well dose at 24 hrs in Schizont maturation assay; assay type: functional
Plasmodium falciparum [12] = assay: In vitro antimalarial activity for Plasmodium falciparum at 0.50 uM/well dose at 24 hrs in Schizont maturation assay; assay type: functional
Mus musculus [13] = assay: In vivo antimalarial activity against Plasmodium berghei in mice (Mus musculus); Inactive; assay type: functional, organism-based
Plasmodium falciparum [14] = assay: In vitro antimalarial activity for Plasmodium falciparum at 1 uM/well dose at 24 hrs in Schizont maturation assay; assay type: functional
Plasmodium falciparum [15] = assay: In vitro inhibition of Plasmodium falciparum at 2.5 uM/well dose at 72 hrs in total parasite growth assay; assay type: functional
Plasmodium falciparum [16] = assay: In vitro antimalarial activity for Plasmodium falciparum at 20 uM/well dose at 24 hrs in Schizont maturation assay; assay type: functional
Plasmodium falciparum [17] = assay: In vitro inhibition of Plasmodium falciparum at 0.5 uM/well dose at 72 hrs in total parasite growth assay; assay type: functional
Plasmodium falciparum [18] = assay: In vitro antimalarial activity for Plasmodium falciparum at 2.5 uM/well dose at 24 hrs in Schizont maturation assay; assay type: functional
Mus musculus [19] = assay: Antimalarial activity against Plasmodium berghei evaluated in terms of mean survival time for mice (Mus musculus) at a dose of 160 mg/kg; assay type: functional
Plasmodium falciparum [20] = assay: In vitro antimalarial activity for Plasmodium falciparum at 10 uM/well dose at 24 hrs in Schizont maturation assay; assay type: functional
Plasmodium falciparum [21] = assay: In vitro inhibition of Plasmodium falciparum at 1.0 uM/well dose at 72 hrs in total parasite growth assay; assay type: functional
Plasmodium falciparum [22] = assay: In vitro antimalarial activity for Plasmodium falciparum at 0.10 uM/well dose at 24 hrs in Schizont maturation assay; assay type: functional
Plasmodium falciparum [23] = assay: In vitro inhibition of Plasmodium falciparum at 0.25 uM/well dose at 72 hrs in total parasite growth assay; assay type: functional
Plasmodium falciparum [24] = assay: In vitro inhibition of Plasmodium falciparum at 50 uM/well dose at 72 hrs in total parasite growth assay; assay type: functional
Plasmodium falciparum [25] = assay: In vitro antimalarial activity for Plasmodium falciparum at 500 uM/well dose at 24 hrs in Schizont maturation assay; assay type: functional
Plasmodium falciparum [26] = assay: In vitro inhibition of Plasmodium falciparum at 25 uM/well dose at 72 hrs in total parasite growth assay; assay type: functional
Plasmodium falciparum [27] = assay: In vitro inhibition of Plasmodium falciparum at 20 uM/well dose at 72 hrs in total parasite growth assay; assay type: functional
Mus musculus [28] = assay: In vivo anti-malarial activity against Plasmodium berghei in mice (Mus musculus) at a dose of 160 mg/kg; Active; assay type: functional, organism-based; set-up: dose 160 mg/kg
Plasmodium falciparum [29] = assay: In vitro antimalarial activity for chloroquine-resistant Plasmodium falciparum at 0.25 uM/well dose at 24 hrs in Schizont maturation assay; assay type: functional
Plasmodium falciparum [30] = assay: In vitro antimalarial activity for chloroquine-resistant Plasmodium falciparum at 2.5 uM/well dose at 24 hrs in Schizont maturation assay; assay type: functional
Plasmodium falciparum [31] = assay: In vitro antimalarial activity for chloroquine-resistant Plasmodium falciparum at 10 uM/well dose at 24 hrs in Schizont maturation assay; assay type: functional
Plasmodium falciparum [32] = assay: In vitro antimalarial activity for chloroquine-resistant Plasmodium falciparum at 50 uM/well dose at 24 hrs in Schizont maturation assay; assay type: functional
Plasmodium falciparum [33] = assay: In vitro inhibition of chloroquine-resistant Plasmodium falciparum at 0.25 uM/well dose at 72 hrs in total parasite growth assay; assay type: functional
Plasmodium falciparum [34] = assay: In vitro antimalarial activity for chloroquine-resistant Plasmodium falciparum at 100 uM/well dose at 24 hrs in Schizont maturation assay; assay type: functional
Plasmodium falciparum [35] = assay: In vitro antimalarial activity for chloroquine-resistant Plasmodium falciparum at 0.10 uM/well dose at 24 hrs in Schizont maturation assay; assay type: functional
Plasmodium falciparum [36] = assay: In vitro antimalarial activity for chloroquine-resistant Plasmodium falciparum at 1 uM/well dose at 24 hrs in Schizont maturation assay; assay type: functional
Plasmodium falciparum [37] = assay: In vitro antimalarial activity for chloroquine-resistant Plasmodium falciparum at 5 uM/well dose at 24 hrs in Schizont maturation assay; assay type: functional
Plasmodium falciparum [38] = assay: In vitro inhibition of chloroquine-resistant Plasmodium falciparum at 0.5 uM/well dose at 72 hrs in total parasite growth assay; assay type: functional
Plasmodium falciparum [39] = assay: In vitro antimalarial activity for chloroquine-resistant Plasmodium falciparum at 0.5 uM/well dose at 24 hrs in Schizont maturation assay; assay type: functional
Plasmodium falciparum [40] = assay: In vitro antimalarial activity for chloroquine-resistant Plasmodium falciparum at 20 uM/well dose at 24 hrs in Schizont maturation assay; assay type: functional
Plasmodium falciparum [41] = assay: In vitro inhibition of chloroquine-resistant Plasmodium falciparum at 1.0 uM/well dose at 72 hrs in total parasite growth assay; assay type: functional

SMILES	Mean survival time (Mus musculus [1]) [days]	inhibition at 50 µM (Plasmodium falciparum [2]) [%]	Mean survival time (Mus musculus [3]) [days]	PGI (Plasmodium falciparum [4]) [%]	PGI (Plasmodium falciparum [5]) [%]	PGI (Plasmodium falciparum [6]) [%]	inhibition at 100 µM (Plasmodium falciparum [8]) [%]	Mean survival time (Mus musculus [9]) [days]	inhibition at 0.25 µM (Plasmodium falciparum [10]) [%]	inhibition at 5 µM (Plasmodium falciparum [11]) [%]	inhibition at 0.5 µM (Plasmodium falciparum [12]) [%]	inhibition at 1 µM (Plasmodium falciparum [14]) [%]	PGI (Plasmodium falciparum [15]) [%]	inhibition at 20 µM (Plasmodium falciparum [16]) [%]	PGI (Plasmodium falciparum [17]) [%]	Mean survival time (Mus musculus [19]) [days]	inhibition at 10 µM (Plasmodium falciparum [20]) [%]	PGI (Plasmodium falciparum [21]) [%]	inhibition at 0.1 µM (Plasmodium falciparum [22]) [%]	PGI (Plasmodium falciparum [23]) [%]	further results
C=C(C(=O)OC)C(O)c1ccccc1 (stereo not drawn)	10.2	100	7	100	100	100	100	6	0	93	7	43	62.5	100	7.5	12	100	40	0	0	PGI (Plasmodium falciparum [7]): 100%; Activity (Mus musculus [13]): inactive; inhibition at 2.5 µM (Plasmodium falciparum [18]): 64%; PGI (Plasmodium falciparum [24]): 100%
C=C(C#N)C(O)c1ccc(OC)c(OC)c1 (stereo not drawn)	–	71	–	–	–	–	100	–	0	21	0	5.26	–	–	–	–	42	–	0	–	inhibition at 500 µM (Plasmodium falciparum [25]): 100%
C=C(C(=O)OC)C(O)/C=C(\C)CCC=C(C)C (stereo not drawn)	9.6	–	8.4	–	–	–	–	7.2	–	–	–	–	–	–	–	11.4	–	–	–	–	Activity (Mus musculus [13]): inactive
C=C(C(=O)OC)C(O)c1ccco1 (stereo not drawn)	–	–	–	85.7	100	98	–	–	–	–	–	–	42.8	–	–	–	–	20	–	0	PGI (Plasmodium falciparum [26]): 100%
C=C(C#N)C(OCCC#N)c1ccc2c(c1)OCO2 (stereo not drawn)	11.4	100	9.2	52.5	100	90	100	7.8	6	64	36	43	40	100	10	14.2	93	25	0	0	PGI (Plasmodium falciparum [27]): 95%; Activity (Mus musculus [28]): Active; inhibition at 2.5 µM (Plasmodium falciparum [18]): 57%; PGI (Plasmodium falciparum [24]): 100%
C=C(C#N)C(O)c1cc(OC)c(OC)c(OC)c1 (stereo not drawn)	10.4	100	7.6	100	100	100	100	6	30	82.4	42.4	64	100	100	86	12.4	100	94	0	73	inhibition at 0.25 µM (Plasmodium falciparum [29]): 30%; inhibition at 2.5 µM (Plasmodium falciparum [30]): 69%; inhibition at 10 µM (Plasmodium falciparum [31]): 100%; inhibition at 50 µM (Plasmodium falciparum [32]): 100%; PGI (Plasmodium falciparum [27]): 100%; Activity (Mus musculus [28]): Active; PGI (Plasmodium falciparum [33]): 70%; inhibition at 100 µM (Plasmodium falciparum [34]): 100%; inhibition at 500 µM (Plasmodium falciparum [25]): 100%; inhibition at 0.1 µM (Plasmodium falciparum [35]): 4.2%; inhibition at 1 µM (Plasmodium falciparum [36]): 65%; inhibition at 5 µM (Plasmodium falciparum [37]): 81%; PGI (Plasmodium falciparum [38]): 81%; inhibition at 2.5 µM (Plasmodium falciparum [18]): 76.5%; inhibition at 0.5 µM (Plasmodium falciparum [39]): 48.6%; inhibition at 20 µM (Plasmodium falciparum [40]): 100%; PGI (Plasmodium falciparum [26]): 100%; PGI (Plasmodium falciparum [41]): 90%; PGI (Plasmodium falciparum [24]): 100%
